Experimental data reported in paper PMC5898707, “Piperazinyl fragment improves anticancer activity of Triapine” (PLoS ONE, 2018).
Where two headings read alike, the source gives them in different places. Blank lines part the entries; values can stand above or below the compound they belong to.

Experiments:
[1] = tested on: NHDF; assay: Cytotoxicity MTS assay, 72 h; type: cell-based; conditions: Homo sapiens, NHDF normal fibroblasts
Description: (§1) The human colon carcinoma cell line HCT116 wild type (p53^+/+), human breast carcinoma cell line MCF-7 and glioblastoma cell line Hs683 were obtained from ATCC. The glioma cell line U-251 was purchased from Sigma Aldrich and the normal human fibroblast cell lines NHDF from PromoCell. The human colon cancer cell line HCT116 with a p53 deletion (p53^-/-) was kindly provided by Prof. M. Rusin from the Maria Sklodowska-Curie Memorial Cancer Centre and Institute of Oncology in Gliwice, Poland. Cells were grown as monolayer cultures in Dulbecco’s modified Eagle’s medium with an antibiotic gentamicin (200 μL/100 mL medium) in 75 cm^2 flasks (Nunc). DMEM for HCT116, MCF-7, U-251, Hs683 were supplemented with 12% heat-inactivated fetal bovine serum (Sigma) and for NHDF with 15% non-inactivated fetal bovine serum (Sigma). All the cell lines were cultured under standard conditions at 37°C in a humidified atmosphere at 5% CO2.
(§2) The cells were seeded in 96-well plates (Nunc) at a density of 5,000 cells/well (HCT116, MCF-7, U-251, Hs683) and 4,000 cells/well (NHDF) and incubated at 37°C for 24 h. The assay was performed following a 72 h incubation with varying concentrations of the compounds that were tested. Then, 20 μL of The CellTiter 96®AQueous One Solution-MTS (Promega) solution was added to each well (with 100 μL DMEM without phenol red) and incubated for 1 h at 37°C. The optical densities of the samples were analyzed at 490 nm using a multi-plate reader (Synergy 4, Bio Tek). Results were expressed as a percentage of the control and calculated as the inhibitory concentration (IC50) values using GraphPad Prism 5. The IC50 parameter was defined as the compound concentration that was necessary to reduce the proliferation of cells to 50% of the untreated control. Each individual compound was tested in triplicate in a single experiment with each experiment being repeated four to five times.

[2] = tested on: HCT116 p53^-/-; assay: Cytotoxicity MTS assay, 72 h; type: cell-based, human; conditions: for IC50: Homo sapiens, HCT-116, HCT116 p53^-/-, 72 h, MTS
Description: as §1, §2

[3] = tested on: HCT116 p53^+/+; assay: Cytotoxicity MTS assay, 72 h; type: cell-based, human; conditions: for IC50: Homo sapiens, HCT-116, HCT116 p53^+/+, 72 h, MTS
Description: as §1, §2

[4] = tested on: MCF-7; assay: Cytotoxicity MTS assay, 72 h; type: cell-based, human; conditions: for IC50: Homo sapiens, MCF7, MCF-7, 72 h, MTS
Description: as §1, §2

[5] = tested on: U-251; assay: Cytotoxicity MTS assay, 72 h; type: cell-based, human; conditions: for IC50: Homo sapiens, U-251, 72 h, MTS
Description: as §1, §2

[6] = tested on: Hs683; assay: Cytotoxicity MTS assay, 72 h; type: cell-based, human; conditions: for IC50: Homo sapiens, Hs 683, Hs683, 72 h, MTS
Description: as §1, §2

[7] = tested on: MCF-7 cells; assay: Western blot of cell cycle and cell death proteins; type: cell-based, human; conditions: 24 h, L^9 at four-fold IC50
Method: (§3) The HCT116 (p53^+/+), U-251 and MCF-7 cells were seeded in 3 cm Petri dishes (Nunc) at a density of 0.5·10^6 cells/well and incubated overnight. […] Cells were harvested by trypsinization, washed with cold PBS and cell pellets were obtained by centrifugation at 2,000 rpm. Total cell lysates were obtained by dissolving the cell pellets in 150 μL of a RIPA buffer (Thermo Scientific) containing a Halt Protease Inhibitor Cocktail (Thermo Scientific) or Halt Phosphatase Inhibitor Cocktail (Thermo Scientific) along with 0.5 M EDTA and lysed for 20 min on ice on a rocking plate. The lysates were then sonicated, centrifuged at 10,000 rpm for 10 min at 4°C and the supernatants were collected for further analysis. The protein concentration was determined using a Micro BCA™ Protein Assay Kit (Thermo Scientific) according to the manufacturer’s instructions. Equal amounts of proteins (15 μg) were electrophoresed on SDS-Page gels and transferred onto a nitrocellulose membranes. The membranes were blocked in 5% non-fat milk prepared in PBS containing 0.1% Tween-20 (TPBS) for 1 h. After blocking, the membranes were incubated with specific primary antibodies: PARP, p53, p21^Waf1/Cip1, cdc2, cyclin E, cytochrome c, caspase-3,8,9 and GAPPH overnight at 4°C, then washed and incubated with horseradish peroxidase (HRP)-conjugated secondary antibodies for 1 h at room temperature. All the antibodies were purchased from Cell Signaling and were diluted 1:1000 in 5% milk in TPBS. Finally, the membranes were washed and incubated with a SuperSignal™ West Pico Chemiluminescent Substrate (Thermo Scientific). The chemiluminescence signals were captured using a ChemiDoc™ XRS+ System (BioRad). The experiments were performed at least three times.

[8] = tested on: HCT116 p53^+/+ cells; assay: Western blot of cell cycle and cell death proteins; type: cell-based, human; conditions: 24 h, L^9 at four-fold IC50
Method: as §3

[9] = tested on: U-251 cells; assay: Western blot of cell cycle and cell death proteins; type: cell-based, human; conditions: 24 h
Method: as §3

[10] = Protonation constants by pH-dependent UV-visible spectrophotometric titration; type: physicochemical; conditions: MeOH/H2O 80/20 by weight, I = 0.1 M KCl, T = 25.0°C
Method: Spectrophotometric titrations were performed in order to probe the acid-based equilibria that were associated with each ligand and to determine the pH range over which the chelator was in its charge neutral form. This property is important in understanding the passage of a molecule through the cell membranes, as charged chelators have poor access. These studies were performed in an 80% (w/w) MeOH/H2O solvent mixture due to the low solubility of these compounds in pure water. The fully protonated forms of the ligands have four L^1-L^7 or five L^8-L^12 dissociable protons, respectively. […] An additional proton in L^8-L^12 derives from the additional pyridine, pyrimidine or pyrazine ring, respectively; however, not all of them could be determined under these experimental conditions. The protonation constants that were obtained are given in Table 1 and the species distribution diagram of the protonated species of the selected ligand is presented in Fig 3.
To determine the acid-base properties of the studied ligands, UV-visible spectrophotometric experiments as a function of p[H] were carried out in the pH range 2–11.
UV-Visible titrations were also carried out. The absorption spectra (200–800 nm) were recorded using a Jasco V630 spectrophotometer. The initial pH of 3.2 mL ligand samples was adjusted to be acidic or basic and the titration of the solution was then carried out by adding known volumes of NaOH or HCl, respectively. The spectrophotometric data were fitted using the HypSpec program. Distribution diagrams of the species were calculated using Hyperquad Simulation and Speciation (HySS) software.

[11] = cited from earlier work

melting point: 195 to 196 °C
Compound: COc1ccc(N2CCN(C(=S)NN=Cc3ncccc3N)CC2)cc1 [L^4, N’-[(3-aminopyridin-2-yl)methylidene]-4-(4-methoxyphenyl)piperazine-1-carbothiohydrazide]
IC50 [1]: > 25 µM
IC50 [2]: 0.185 ± 0.088 µM
IC50 [3]: 1.33 ± 0.209 µM
IC50 [4]: 0.424 ± 0.149 µM
IC50 [5]: 0.649 ± 0.17 µM
IC50 [6]: 4.46 ± 0.954 µM

melting point: 209 to 210 °C
Compound: N#Cc1ccc(N2CCN(C(=S)NN=Cc3ncccc3N)CC2)cc1 [L^5, N’-[(3-aminopyridin-2-yl)methylidene]-4-(4-cyanophenyl)piperazine-1-carbothiohydrazide]
IC50 [1]: > 25 µM
IC50 [2]: 0.746 ± 0.354 µM
IC50 [3]: 1.45 ± 0.452 µM
IC50 [4]: 3.81 ± 1.02 µM
IC50 [5]: 2.57 ± 0.675 µM
IC50 [6]: 10.1 ± 2.64 µM

melting point: 189 to 190 °C
Compound: Nc1cccnc1C=NNC(=S)N1CCN(c2ccccc2)CC1 [L^1, N’-[(3-aminopyridin-2-yl)methylidene]-4-phenylpiperazine-1-carbothiohydrazide]
IC50 [1]: > 25 µM
IC50 [2]: 0.128 ± 0.012 µM
IC50 [3]: 1.52 ± 0.445 µM
IC50 [4]: 0.532 ± 0.145 µM
IC50 [5]: 0.403 ± 0.09 µM
IC50 [6]: 1.44 ± 0.358 µM

logK1 [10]: 10.64
logK2 [10]: 3.48
logβ1H ([10]; error 1σ): 10.64 (1)
logβ2H ([10]; error 1σ): 14.12 (1)
Compound: NC(=S)NN=Cc1ncccc1N [Triapine, 3-aminopyridine-2-carboxaldehyde thiosemicarbazone]
IC50 [1]: > 25 µM
cytochrome c [7]: release of cytochrome c
expression of cdc2 [7]: much stronger
expression of cyclin E [7]: overexpression
cytochrome c [8]: release of cytochrome c
expression of cyclin E [8]: overexpression
cytochrome c ([9]; U-251): release of cytochrome c
expression of cyclin E ([9]; U-251, L^9 at four-fold IC50): overexpression
PARP cleavage ([9]; glioma cell (U-251)): PARP cleavage
Therapeutic index (TI) NHDF vs. HCT116 p53^-/- [2]: >19
IC50 [2]: 1.34 ± 0.338 µM
Therapeutic index (TI) NHDF vs. HCT116 p53^+/+ [3]: >22
IC50 [3]: 1.12 ± 0.277 µM
Therapeutic index (TI) NHDF vs. MCF-7 [4]: >11
IC50 [4]: 2.33 ± 0.431 µM
Therapeutic index (TI) NHDF vs. U-251 [5]: >17
IC50 [5]: 1.48 ± 0.558 µM
Therapeutic index (TI) NHDF vs. Hs683 [6]: >14
IC50 [6]: 1.76 ± 0.292 µM
logK1 ([11]; literature value): 10.86
logK2 ([11]; literature value): 3.79
logβ1H ([11]; literature value): 10.86 (1)^[[45]^]
logβ2H ([11]; literature value): 14.65 (1)^[[45]^]

melting point: 179 to 180 °C
Compound: Nc1cccnc1C=NNC(=S)N1CCN(c2ccc(C(F)(F)F)cc2[N+](=O)[O-])CC1 [L^6, N’-[(3-aminopyridin-2-yl)methylidene]-4-[2-nitro-4-(trifluoromethyl)phenyl]piperazine-1-carbothiohydrazide]
IC50 [1]: > 25 µM
IC50 [2]: 0.27 ± 0.007 µM
IC50 [3]: 0.139 ± 0.016 µM
IC50 [4]: 0.47 ± 0.097 µM
IC50 [5]: 0.381 ± 0.042 µM
IC50 [6]: 1.89 ± 0.812 µM

melting point: 199 to 200 °C
Compound: Nc1cccnc1C=NNC(=S)N1CCN(c2ncc(C(F)(F)F)cc2Cl)CC1 [L^10, N’-[(3-aminopyridin-2-yl)methylidene]-4-[3-chloro-5-(trifluoromethyl)pyridin-2-yl]piperazine-1-carbothiohydrazide]
IC50 [1]: > 25 µM
IC50 [2]: 0.159 ± 0.011 µM
IC50 [3]: 0.17 ± 0.015 µM
IC50 [4]: 0.258 ± 0.04 µM
IC50 [5]: 0.137 ± 0.016 µM
IC50 [6]: 0.195 ± 0.021 µM

melting point: 198 to 199 °C
Compound: Nc1cccnc1C=NNC(=S)N1CCN(c2ncccn2)CC1 [L^11, N’-[(3-aminopyridin-2-yl)methylidene]-4-(pyrimidin-2-yl)piperazine-1-carbothiohydrazide]
IC50 [1]: > 25 µM
IC50 [2]: 0.65 ± 0.055 µM
IC50 [3]: 0.668 ± 0.045 µM
IC50 [4]: 1.73 ± 0.388 µM
IC50 [5]: 1.27 ± 0.374 µM
IC50 [6]: 2.84 ± 0.581 µM

melting point: 210 to 211 °C
Compound: Nc1cccnc1C=NNC(=S)N1CCN(c2ccccn2)CC1 [L^8, N’-[(3-aminopyridin-2-yl)methylidene]-4-(pyridin-2-yl)piperazine-1-carbothiohydrazide]
IC50 [1]: > 25 µM
IC50 [2]: 0.139 ± 0.02 µM
IC50 [3]: 1.9 ± 0.292 µM
IC50 [4]: 1.12 ± 0.113 µM
IC50 [5]: 1.07 ± 0.28 µM
IC50 [6]: 1.16 ± 0.307 µM

Compound: c1ccncc1 [pyridine]
logK ([11]; tabulated value): 5.23

Compound: Nc1cccnc1C=NNC(=S)N1CCN(c2ccc(C(F)(F)F)cn2)CC1 [L^9, N’-[(3-aminopyridin-2-yl)methylidene]-4-[5-(trifluoromethyl)pyridin-2-yl]piperazine-1-carbothiohydrazide]
IC50 [1]: > 25 µM
IC50 [2]: 0.123 ± 0.061 µM
IC50 [3]: 0.422 ± 0.113 µM
IC50 [4]: 0.204 ± 0.024 µM
IC50 [5]: 0.277 ± 0.058 µM
IC50 [6]: 0.844 ± 0.238 µM

melting point: 217 to 218 °C
Compound: Nc1cccnc1C=NNC(=S)N1CCN(c2cnccn2)CC1 [L^12, N’-[(3-aminopyridin-2-yl)methylidene]-4-(pyrazin-2-yl)piperazine-1-carbothiohydrazide]
IC50 [1]: > 25 µM
IC50 [2]: 0.342 ± 0.042 µM
IC50 [3]: 0.435 ± 0.108 µM
IC50 [4]: 2.22 ± 0.638 µM
IC50 [5]: 0.743 ± 0.109 µM
IC50 [6]: 2.6 ± 0.237 µM

melting point: 210 to 211 °C
Compound: Nc1cccnc1C=NNC(=S)N1CCN(c2ccc(F)cc2)CC1 [L^2, N’-[(3-aminopyridin-2-yl)methylidene]-4-(4-fluorophenyl)piperazine-1-carbothiohydrazide]
IC50 [1]: > 25 µM
IC50 [2]: 0.152 ± 0.074 µM
IC50 [3]: 0.526 ± 0.077 µM
IC50 [4]: 0.36 ± 0.111 µM
IC50 [5]: 0.887 ± 0.158 µM
IC50 [6]: 2.49 ± 0.512 µM

melting point: 193 to 194 °C
Compound: CC(C)(C)OC(=O)N1CCN(C(=S)NN=Cc2ncccc2N)CC1 [L^7, tert-butyl 4-({2-[(3-aminopyridin-2-yl)methylidene]hydrazinyl}carbonothioyl)piperazine-1-carboxylate]
IC50 [1]: > 25 µM
IC50 [2]: 1.13 ± 0.049 µM
IC50 [3]: 0.762 ± 0.238 µM
IC50 [4]: 2.54 ± 0.4 µM
IC50 [5]: 3.08 ± 1.27 µM
IC50 [6]: 4.62 ± 1.03 µM
